Assay [1] relates to C. difficile-associated diarrheal isolates. The conditions noted are these: cited from earlier work.
Another assay has as its system C. difficile R20291. To be noted: C. difficile R20291, CDI patient stool; cited from earlier work.
Another assay has as its system L. rhamnosus LR-34. Description: Antibiotic susceptibility testing, broth microdilution MIC. The conditions noted are these: for MIC: Lacticaseibacillus rhamnosus; for MIC / Minimum inhibitory concentration: MRS, anaerobic, 24 h, ≥90% reduction in growth. Format: cell-based. As for the experimental part:
(§1) Antibiotic Susceptibility Testing. Susceptibility of Lactobacillus spp. to antibiotics was determined using standard broth microdilution procedures (24). […] Plates were incubated anaerobically at 37° C. for 24 h. Optical density measurements (600 nm) were recorded using a Synergy™ H1 Hybrid Multi-Mode Microplate Reader (BioTek Instruments, Inc, Winooski, Vt.). […] Significance was determined using student's t test with equal variance.
Background: In broth dilution the organism is exposed to a series of concentrations in liquid medium.

The test system of the next assay is L. casei LC-39. Described as above. Format: cell-based. The conditions noted are these: for MIC: Lacticaseibacillus casei; for MIC / Minimum inhibitory concentration: MRS, anaerobic, 24 h, ≥90% reduction in growth. On the procedure:
as §1

In another assay the test system is L. gasseri LG-3. The description is as above. In kind it is cell-based. To be noted: for MIC: Lactobacillus gasseri, read-out: Minimum inhibitory concentration. On the procedure:
(§2) Antibiotic Susceptibility Testing. Susceptibility of Lactobacillus spp. to antibiotics was determined using standard broth microdilution procedures (24). […] Plates were incubated anaerobically at 37° C. for 24 h. Optical density measurements (600 nm) were recorded using a Synergy™ H1 Hybrid Multi-Mode Microplate Reader (BioTek Instruments, Inc, Winooski, Vt.). Results were compared to a growth control (lactobacilli only), and the minimum inhibitory concentration (MIC) endpoint was the concentration of antibiotic where ≥90% reduction in growth was observed. Significance was determined using student's t test with equal variance.

The test system of the next assay is L. reuteri 17938. The assay is described as above. The conditions noted are these: read-out: Minimum inhibitory concentration. In kind it is cell-based. On the procedure: as §2
The test system of the next assay is L. reuteri 6475. The assay is described as above. In kind it is cell-based. The conditions noted are these: read-out: Minimum inhibitory concentration. As for the experimental part:
as §2

The next assay has as its system C. difficile CD2015. Description: C. difficile invasion of antibiotic-treated human fecal mini-bioreactor arrays (MBRA), qPCR. In kind it is cell-based. To be noted: clindamycin-treated MBRA, increase not statistically significant. On the procedure: Mini-bioreactor array (MBRA) preparation, operation and sample collection. Effects of reuterin on C. difficile growth in a human fecal microbial community were tested in MBRAs. Replicate MBRAs (twelve independent 15-mL reactors) and bioreactor medium (BRM2) were prepared as previously described (26). Reactors were inoculated with an anaerobic preparation of a 25% fecal slurry from an anonymous healthy donor (5% w/v final concentration) and were operated in an anaerobic chamber with 5% H2, 5% CO2, 90% N2 atmosphere. After 16 h of outgrowth in batch culture mode, continuous-flow cultivation was initiated at a flow rate of 0.94 ml/h (16 h retention time). After 36 h of flow, reactor communities were treated twice daily with clindamycin (500 mg/L final concentration) for 4.5 days. Reactors were transitioned to fresh medium on day 4 of clindamycin treatment, with 6 reactors receiving standard BRM2 medium and 6 reactors receiving BRM2 supplemented with glycerol (10% v/v final concentration). […]
Samples (1 ml) were collected from each MBRA as described (27) prior to the initiation of continuous flow and then daily through the duration of the experiment. […] Microbial community and metabolite analysis, and quantification of C. difficile levels by quantitative PCR (qPCR) were performed as described below. […]
Quantification of C. difficile by qPCR. […]
(In qPCR the cycle at which signal appears reflects the starting amount.)

The mark [2] stands for this setting: LR34, L. rhamnosus LR-34, read-out: Minimum inhibitory concentration.
[3] abbreviates: LC39, L. casei LC-39, read-out: Minimum inhibitory concentration.
The mark [4] stands for this setting: LG3, L. gasseri LG-3, MRS, anaerobic, 24 h, ≥90% reduction in growth.
The mark [5] stands for this setting: Limosilactobacillus reuteri, L. reuteri 17938, MRS, anaerobic, 24 h, ≥90% reduction in growth.
Setting [6] is: Limosilactobacillus reuteri, 6475, 24 h.

SMILES strings stand for the structures. Values after ≈ are worked out from the molar mass of the structure shown. Where two headings read alike, the source gives them in different places.

What is called MIC90 is an inhibitory concentration at the 90% level, which refers to growth in some studies and to a panel of isolates in others. For `CCc1c(Cl)c(O)c(Cl)c(O)c1C(=O)O[C@H]1[C@H](O)[C@H](OC)[C@H](OC/C2=C\C=C\C[C@H](O)/C(C)=C/[C@H](CC)[C@@H](O[C@@H]3OC(C)(C)[C@@H](OC(=O)C(C)C)[C@H](O)[C@@H]3O)/C(C)=C/C(C)=C/C[C@@H]([C@@H](C)O)OC2=O)O[C@@H]1C` [Fidaxomycin, fidaxomicin], the MIC90 in assay [1] was 0.5 µg/mL (≈ 0.473 µM). Also, in the assay on C. difficile R20291, the Minimum inhibitory concentration is 0.5 µg/mL (≈ 0.473 µM). Further, the “MIC relative to the MIC90 for C. difficile” value in the assay with L. rhamnosus LR-34 (L. rhamnosus LR-34, fold greater) was found to be 4 fold; in the assay with L. casei LC-39 (L. casei LC-39, fold greater), 4 fold. Besides, the MIC in the assay on L. rhamnosus LR-34 (setting [2]) was 2 µg/mL; in the assay with L. casei LC-39 (setting [3]), 2 µg/mL; with L. gasseri LG-3 (setting [4]), 2 µg/mL; in the assay on L. reuteri 17938 (setting [5]), above 32 µg/mL; in the assay on L. reuteri 6475 (Limosilactobacillus reuteri, L. reuteri 6475, MRS, anaerobic, 24 h, ≥90% reduction in growth) it was above 32 µg/mL.
Take `Cc1ncc([N+](=O)[O-])n1CCO` [Metronidazole, metronidazole]: the MIC90 in assay [1] was 2 µg/mL (≈ 11.7 µM). In addition, the Minimum inhibitory concentration was 2 µg/mL (≈ 11.7 µM) with C. difficile R20291; above 256 µg/mL with L. rhamnosus LR-34 (L. rhamnosus LR-34); above 256 µg/mL in the assay on L. casei LC-39 (L. casei LC-39); above 256 µg/mL with L. gasseri LG-3 (L. gasseri LG-3, MRS, anaerobic, 24 h, ≥90% reduction in growth). Also, the MIC was above 256 µg/mL in the assay on L. rhamnosus LR-34 (setting [2]); above 256 µg/mL with L. casei LC-39 (setting [3]); above 256 µg/mL in the assay with L. gasseri LG-3 (setting [4]); above 256 µg/mL with L. reuteri 17938 (setting [5]); 128 µg/mL with L. reuteri 6475 (setting [6]).
Consider `CN[C@H](CC(C)C)C(=O)N[C@H]1C(=O)N[C@@H](CC(N)=O)C(=O)N[C@H]2C(=O)N[C@H]3C(=O)N[C@H](C(=O)N[C@H](C(=O)O)c4cc(O)cc(O)c4-c4cc3ccc4O)[C@H](O)c3ccc(c(Cl)c3)Oc3cc2cc(c3O[C@@H]2O[C@H](CO)[C@@H](O)[C@H](O)[C@H]2O[C@H]2C[C@](C)(N)[C@H](O)[C@H](C)O2)Oc2ccc(cc2Cl)[C@H]1O` [Vancomycin, vancomycin], for which the MIC90 in assay [1] is 4 µg/mL (≈ 2.76 µM). Moreover, the Minimum inhibitory concentration was 4 µg/mL (≈ 2.76 µM) in the assay with C. difficile R20291, 256 µg/mL with L. rhamnosus LR-34 (L. rhamnosus LR-34) and 256 µg/mL with L. casei LC-39 (L. casei LC-39). Besides, the MIC was above 256 µg/mL in the assay on L. rhamnosus LR-34 (LR34, 24 h, read-out: Minimum inhibitory concentration, L. rhamnosus LR-34); above 256 µg/mL with L. casei LC-39 (LC39, 24 h, read-out: Minimum inhibitory concentration, L. casei LC-39); 1 µg/mL in the assay with L. gasseri LG-3 (LG3, 24 h); 256 µg/mL in the assay with L. reuteri 17938 (Limosilactobacillus reuteri, 17938, 24 h); 256 µg/mL with L. reuteri 6475 (setting [6]).
With `OCC(O)CO` [glycerol], in the assay on C. difficile CD2015, the “C. difficile concentrations, fold greater than controls” value is listed as around 10 fold.

Values taken from patent US20190134115A1, “Activated Lactobacillus Reuteri Strains for Selective Pathogen Inhibition in a Human Microbial Community” (BioGaia AB, priority 2016, published 2019).
